In US9315493B2, “Phenylpyridine derivative and drug containing same” (KOWA COMPANY, LTD., priority 2011, dated 2016):

Key:
[1] = molecular target: human PPARγ2 (Homo sapiens (Human), UniProt P37231); assay: PPARγ activation effect, Gal4-PPARγ2 LBD luciferase transfection assay in COS7 cells; type: cell-based; conditions: Gal4-human PPARγ2 LBD chimera, luciferase reporter; for EC50: 16 hours, rosiglitazone = 100%
Method: The agonistic activity of the compounds of the invention on PPARγ was measured based on the transfection assay using COS7 cells (DS Pharma Biomedical Co., Ltd., Osaka, Japan), which are the cell line derived from the kidney of the African green monkey. COS7 cells were cultured under 5% CO2 concentration, and DMEM medium containing 10% fetal bovine serum, glutamic acid, and antibiotics was used as a medium.
As an expression vector, a chimera in which DNA binding domain of Gal4, which is a yeast transcription factor, and ligand binding domain of human PPARγ2 are fused, i.e., a fused product between the amino acids 1 to 147 of Gal4 transcription factor and the amino acids 182 to 505 of human PPARγ2, was used. Furthermore, as a reporter vector, a firefly luciferase containing five copies of Gal4 recognition sequence in the promoter region was used. Plasmid transfection to the cells was performed according to a method which uses jetPEI (trade name, manufactured by Funakoshi Co., Ltd., Tokyo, Japan). Furthermore, β-galactosidase expression vector was employed as an internal standard.
After the transfection into the cells, the medium was replaced with a DMEM medium (containing 1% serum) added with the test compound, and the cells were further cultured for 16 hours. After that, the luciferase activity and β-galactosidase activity in the cell lysis solution were measured.
Meanwhile, for the present test, dimethylsulfoxide (DMSO) was used for dissolution and dilution of the test compounds, and during the cell treatment, the DMSO concentration in DMEM medium (containing 1% serum) was adjusted to 0.1%. As a positive compound, rosiglitazone (trade name, manufactured by ALEXIS Corporation, Switzerland) was used. The percentage (%) of the luciferase activity of the each test compound (1 to 30 μmol/L) was calculated when the luciferase activity of rosiglitazone (3 to 10 μmol/L) is 100% and the luciferase activity in the absence of the test compound is 0%. The 50% effective concentration of the test compound (EC50, 50% effect concentration) was calculated by using SAS Preclinical Package Ver 5.0 (trade name, manufactured by SAS institute Japan Co., Tokyo, Japan), which is a statistical analysis program.

[2] = molecular target: angiotensin II type 1 receptor (Oryctolagus cuniculus (Rabbit), UniProt P34976); assay: Angiotensin II antagonistic activity in isolated rabbit blood vessels (angiotensin II-induced contraction of thoracic aorta ring); conditions: test compound 0.1 μM, angiotensin II 10 nM-induced contraction, read-out: Rate (%) of inhibiting angiotensin II activity at concentration of 0.1 μM
Chain of angiotensin II type 1 receptor (P34976 whole entry): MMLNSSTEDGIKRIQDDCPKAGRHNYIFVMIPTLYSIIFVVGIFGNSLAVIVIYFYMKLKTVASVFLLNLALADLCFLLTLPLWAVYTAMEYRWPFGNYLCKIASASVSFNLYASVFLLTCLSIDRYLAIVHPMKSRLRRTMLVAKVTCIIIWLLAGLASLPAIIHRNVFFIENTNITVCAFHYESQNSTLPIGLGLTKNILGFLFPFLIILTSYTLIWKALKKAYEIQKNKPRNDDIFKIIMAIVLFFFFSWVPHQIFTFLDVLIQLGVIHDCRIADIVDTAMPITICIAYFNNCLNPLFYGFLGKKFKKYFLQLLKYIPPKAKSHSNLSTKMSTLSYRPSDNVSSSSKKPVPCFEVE
Method: By using a specimen of isolated rabbit blood vessels, antagonistic activity of the compounds of the invention against angiotensin II type 1 receptor was calculated from a dose-response curve of angiotensin II-induced blood vessel contraction. Specifically, the specimen of thoracic aorta ring of a rabbit (New Zealand White: male, 2.4 to 3.0 kg) was suspended in a rmagnus bath filled with Krebs-Henseleite buffer (composition: 118 mM NaCl, 4.7 mM KCl, 2.55 mM CaCl2, 1.18 mM MgSO4, 1.18 mM KH2PO4, 24.88 mM NaHCO3, and 11.1 mM D-glucose), and angiotensin II (10 n M)-induced contraction was obtained in the presence of each test compound (1 n mol/L to 10 μmol/L). During the measurement, the inside temperature of the magnus bath was maintained at 37° C. and the bath was continuously ventilated with a sufficient amount of mixed gas (95% O2 and 5% CO2). The angiotensin II-induced contraction was converted into a relative value (%) that is based on the angiotensin II (0.1 μM)-induced contraction in the absence of the test compound.

Chain of human PPARγ2 (P37231 182-505): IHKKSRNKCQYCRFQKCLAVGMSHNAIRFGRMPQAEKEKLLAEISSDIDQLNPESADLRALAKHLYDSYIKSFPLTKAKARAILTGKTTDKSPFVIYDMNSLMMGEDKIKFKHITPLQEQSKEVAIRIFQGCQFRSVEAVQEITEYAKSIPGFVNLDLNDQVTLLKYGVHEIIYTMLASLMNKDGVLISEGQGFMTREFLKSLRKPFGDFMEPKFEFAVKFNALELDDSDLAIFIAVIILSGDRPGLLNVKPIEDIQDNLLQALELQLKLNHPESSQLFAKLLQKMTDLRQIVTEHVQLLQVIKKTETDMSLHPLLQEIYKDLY

Compound | % MAX vs Rosiglitazone (maximum activity strength relative to the maximum activity of rosiglitazone) [1] [%] | EC50 [1] [nM] | inhibition at 0.1 µM [2] [%]
CCCCCc1nc(C(C)C)n(-c2ncc(OCC)cn2)c(=O)c1Cc1ccc(-c2ccccc2-c2noc(=O)[nH]2)nc1 [Example 42, 3-{2-{5-{[1-(5-ethoxypyrimidin-2-yl)-2-isopropyl-6-oxo-4-pentyl-1,6-dihydropyrimidin-5-yl]methyl}pyridin-2-yl}phenyl}-1,2,4-oxadiazol-5(4H)-one] | 53 | 650 | –
CCCc1nc(C(C)C)n(-c2ncc(OCC)cn2)c(=O)c1Cc1ccc(-c2ccccc2-c2noc(=O)[nH]2)nc1 [Example 40, 3-{2-{5-{[1-(5-ethoxypyrimidin-2-yl)-2-isopropyl-6-oxo-4-propyl-1,6-dihydropyrimidin-5-yl]methyl}pyridin-2-yl}phenyl}-1,2,4-oxadiazol-5(4H)-one] | 69 | 400 | 68.3
CCCCCc1nc(C2CC2)n(-c2ncc(OCC)cn2)c(=O)c1Cc1ccc(-c2ccccc2-c2noc(=O)[nH]2)nc1 [Example 43, 3-{2-{5-{[2-cyclopropyl-1-(5-ethoxypyrimidin-2-yl)-6-oxo-4-pentyl-1,6-dihydropyrimidin-5-yl]methyl}pyridin-2-yl}phenyl}-1,2,4-oxadiazol-5(4H)-one] | 42 | 590 | –
CCCc1nc(C2CC2)n(-c2ncc(OCC)cn2)c(=O)c1Cc1ccc(-c2ccccc2-c2noc(=O)[nH]2)nc1 [Example 41, 3-{2-{5-{[2-cyclopropyl-1-(5-ethoxypyrimidin-2-yl)-6-oxo-4-propyl-1,6-dihydropyrimidin-5-yl]methyl}pyridin-2-yl}phenyl}-1,2,4-oxadiazol-5(4H)-one] | 65 | 560 | 89.9
CCCc1nc2c(C)cc(-c3nc4ccccc4n3C)cc2n1Cc1ccc(-c2ccccc2C(=O)O)cc1 [telmisartan, reference compound] | – | – | 85.3
